Measured values reported in US20260132172A1, “IN VITRO BIOSYNTHESIS OF DIVERSE PYRIDINE-BASED MACROCYCLIC PEPTIDES” (The Brd. of Trustees of the Univ. of Illinois, priority 2022, published 2026).

Legend:
MroB/C = MroB/C dehydration (Dha formation) of MroA precursor peptide variants, MALDI-TOF-MS / LC-MS/MS; type: biochemical, Micromonospora rosaria; details: MroA2 multi-site variants, in vitro translated, MALDI-TOF-MS
Protocol: In a 0.65 mL protein low-binding Eppendorf tube placed on ice. 0.75 μL of purified mroA variant template DNA was mixed with 0.75 μL of Solution B and 1 μL of Solution A of PURExpress In vitro Protein Synthesis Kit (E6800L) purchased from NEB (total volume of reaction is 2.5 μL). The translation reactions were performed at 37° C. for 1 h on an aluminum block.
For a full MroBCD substrate scope investigation, a total translation volume for each variant of 7.5 μL was performed. 1.5 μL of 90 mM iodoacetamide (IAA) was added to quench dithiothreitol (DTT) in the translation reaction mixture, a thiol-based nucleophile that can react with electrophilic dehydroalanines generated from MroBC-catalyzed dehydration assays. The translation product was split into two parts with these corresponding volumes: 3 μL and 6 μL. In the 6 μL part. 10.2 μL of the enzyme mix containing enzymes and cofactors was added along with 1.8 μL 90 mM ATP (pH 7.5), which was used to initiate the reaction. The enzyme mix was made by adding these components in the following order: HEPES pH 7.5, MgCl2, glutamate, T. bispora tRNA^Glu (CUC), thermostable inorganic pyrophosphatase (TIPP), TEV (L56V/S135G/S219V) (w/w ratio with a total amount of MBP-tagged protein=1:10), MBP-MroB, MBP-MroC, and T. bispora GluRS. The enzyme mix was incubated 25 min at room temperature before adding to the translation product to facilitate in situ TEV-catalyzed cleavage of MBP from MBP-MroB and MBP-MroC. The enzymatic reaction proceeded for 1 h at room temperature. Overall, the concentration of components in the 18 μL reaction mix is as follows: 50 mM HEPES pH 7.5, 5 mM MgCl2. L-glutamate 1 mM, 3 μM T. bispora tRNA^Glu, 1 μM T. bispora GluRS, 2 μM MBP-MroB, 2 μM MBP-MroC, […], 0.027 U/μL TIPP, and 5 mM IAA. In addition, the 3 μL part was incubated with the same buffer lacking enzymes and tRNA as a translation control.
The reactions were performed similarly as described above, with 10 μM substrate concentration and without IAA. The total volume of each reaction is 100 μL.
Enzymatic assays were desalted using solid-phase extraction prior to LC-ESI-MS/MS analysis. Specifically, except for the thiazol(in)es-containing pyritide (which utilize 8 mg Pierce C18 Spin Column), the samples were applied to Toptip C18 (10-200 μL, Glygen Corp) wetted with 50 μL of 80% acetonitrile (0.1% formic acid) and equilibrate with 150 μL of 0.1% formic acid following the manufacturer instructions. The C18 columns (tips) are then washed with 150 μL of 0.1% formic acid and eluted using 100 μL 80% acetonitrile (0.1% formic acid). The samples were then dried utilizing lyophilization and redissolved in 25% acetonitrile (80 μL for enzymatic assays of in vitro-translated substrates and 200 μL for enzymatic assays of purified substrates). Then 20 μL of each sample was injected into an Agilent AdvanceBio Peptide Plus column (2.1×150 mm, 2.7 μm) equipped with an Agilent 6545B Q-TOF interfaced with an Agilent 1290 Infinity II LC system. Mobile phase solvents were composed of H2O, 0.1% formic acid (Solvent A), and acetonitrile 0.1% formic acid (Solvent B). The column compartment was maintained at 35° C. during all experiments. The column was equilibrated with 5 column volumes of starting mobile phase (95% A and 5% B) between injections. The gradient of all LC runs was as follows: 0-2 min: 95% A 5% B, 2-3 min: 70% A 30% B, 3-18 min: 20% A 80% B, 18-20 min: 5% A 95% B. The samples were run to waste for the first 3 min before applying to the mass spectrometer. Mass range was set from 100 to 1700 m/z (except for 412MroA1 W7G: 100-3000 m/z). MS parameters were as follows: gas, 320° C. at 8 L/min: nebulizer, 35 psig: nozzle voltage, 1000 V: sheath gas, 350° C. at 11 L/min: capillary, 3500 V: fragmentor, 125 V: skimmer, 65 V: MS scan rate (10) spectra/s): MS-MS scan rate (5 spectra/s); and isolation width (MS/MS), 1.3 m z. […]

MroD [1] = test: MroD [4+2] macrocyclization of didehydrated MroA2 variants, MALDI-TOF-MS; type: biochemical, Micromonospora rosaria; parameters: key: +++ indicates enzyme activity roughly equal to wild-type MroA2; ++ indicates modestly reduced enzyme activity; + indicates severely reduced enzyme activity; − indicates no detectable enzyme activity (no macrocycles detected); details: MroA2 multi-site variants; qualitatively estimated from leader peptide vs remaining didehydrated intermediate
Protocol: (§1) After incubation, the enzyme reaction (18 μL) was split into two equal parts. One part was treated with MBP-MroD such that the final concentration of MBP-MroD is 3 μM, and the other part was added the same volume but with buffer lacking MBP-MroD (50 mM HEPES, 300 mM NaCl, 2.5% glycerol, 0.5 mM TCEP). The reaction further proceeded for 1.5 h at room temperature. All reaction mixture was then desalted with solid-phase extraction using Ziptip with 0.6 μL C18 resin (EMD Millipore) and crystallized on an MTP384 steel target plate using either saturated sinapic acid or 50 mg/mL Super DHB [dissolved in 60% acetonitrile and 0.1% trifluoroacetic acid (TFA)] as the matrix. The crystallized spots were then analyzed using MALDI-TOF-MS (Bruker Ultraflex). The external standard for MALDI-TOF-MS analysis is ProteoMass Peptide and Protein MALDI-MS Calibration Kit (Sigma).

[2] = target: MBP-MroB (Micromonospora rosaria MroB with maltose-binding protein fused to the N-terminus) (Micromonospora rosaria) [MBP: P0AEX9]; test: competition fluorescence polarization against fluorescein-Δ12MroA1
[3] = target: MBP-MroD (Micromonospora rosaria MroD with maltose-binding protein fused to the N-terminus) (Micromonospora rosaria) [MBP: P0AEX9]; test: as above
MroD [4] = test: MroD [4+2] macrocyclization of didehydrated MroA2 variants, MALDI-TOF-MS; type: biochemical, Micromonospora rosaria; parameters: key: +++ indicates enzyme activity roughly equal to wild-type MroA2; ++ indicates modestly reduced enzyme activity; + indicates severely reduced enzyme activity; − indicates no detectable enzyme activity (no macrocycles observed); details: MroA2 multi-site variants; qualitatively estimated from leader peptide vs remaining didehydrated intermediate
Protocol: as §1

Substance | Dha formation (MroB/C) | Relative MroD conversion (MroD [1]) | Relative MroD conversion (MroD [4]) | further results
SGHYKPQASWLI [Number 55] | 2 Dha | − |  | 
Δ12MroA1-COOMe (peptide) |  |  |  | IC50 [2]: 4200 nM; fold loss in binding affinity (against Δ12MroA1) [2]: 8 fold; IC50 [3]: 400 nM
SGGYRPHSWLI [Number 38] | 2 Dha | − |  | 
Δ12MroA1-V8G (peptide) |  |  |  | IC50 [2]: 1100 nM; IC50 [3]: 1700 nM
SGLQHGKYSWLI [Number 52] | 2 Dha | − |  | 
SGYHFHNRSWLI [Number 54-V8R] | 2 Dha | − |  | 
SGDAMRWRSWLI [Number 53-A8R] | 2 Dha | − |  | 
SGLQHGKRSWLI [Number 52-Y8R] | 2 Dha | − |  | 
SGPRANYSWLI [Number 30] | 2 Dha |  | ++ | 
SGVKADSWLI [Number 4] | 2 Dha | − |  | 
SGQDVANRSWLI [Number 43] | 2 Dha |  | +++ | 
SGQGRNVSWLI [Number 24] | 2 Dha |  | + | 
SGPKRWGHSWLI [Number 51] | 2 Dha |  | + | 
SGREFANSWLI [Number 35] | 2 Dha |  | + | 
SGLGHSWLI [Number 1] | 2 Dha |  | + | 
SGMARYSWLI [Number 26] | 2 Dha |  | + | 
SGKALEFSWLI [Number 29] | 2 Dha | − |  | 
SGRYAGRSWLI [Number 39-W7R] | 2 Dha |  | +++ | 
SGMPRGSWLI [Number 8] | 2 Dha |  | +++ | 
SGFDRAGHSWLI [Number 46] | 2 Dha |  | + | 
SGYDRQYSWLI [Number 56] | 2 Dha | − |  | 
SGHWANSWLI [Number 15] | 2 Dha |  | +++ | 

Substance | Dha formation (MroB/C) | Relative MroD conversion (MroD [1]) | Relative MroD conversion (MroD [4]) | further results
SGRYAGWSWLI [Number 39] | 2 Dha | − |  | 
SGRANSWLI [Number 2] | 2 Dha | − |  | 
SGPMHYSWLI [Number 21] | 2 Dha |  | +++ | 
SGKALERSWLI [Number 29-F7R] | Mix of 1,2 |  | ++ | 
SGFIRNASWLI [Number 31] | 2 Dha |  | ++ | 
SGRVALEASWLI [Number 37] | 2 Dha |  | + | 
SGHQFKSWLI [Number 22] | 2 Dha |  | +++ | 
SGGYRPRSWLI [Number 38-H7R] | 2 Dha |  | +++ | 
SGAQQHSWLI [Number 13] | 2 Dha |  | +++ | 
SGQYKFRSWLI [Number 48] | 2 Dha |  | +++ | 
SGYHFHNVSWLI [Number 54] | 2 Dha | − |  | 
SGYDRQRSWLI [Number 56-Y7R] | 2 Dha |  | +++ | 
SGIAKEVQSWLI [Number 47] | 2 Dha | − |  | 
SGYANRAGSWLI [Number 33] | 2 Dha |  | +++ | 
SGLKFYHSWLI [Number 44] | 2 Dha |  | +++ | 
SGPKGSWLI [Number 5] | 2 Dha |  | +++ | 
SGQPQRLGSWLI [Number 42] | 2 Dha |  | +++ | 
SGYRRRAGSWLI [Number 50] | 2 Dha |  | +++ | 
SGAWRSWLI [Number 6] | 2 Dha |  | +++ | 
SGIAKEVRSWLI [Number 47-Q8R] | 2 Dha | − |  | 
SGVKAWSWLI [Number 14] | 2 Dha |  | +++ | 
SGHYKPQRSWLI [Number 55-A8R] | 2 Dha | − |  | 
